In BindingDB's records for doi:10.1021/jm960305h (National Institute of Diabetes and Digestive and Kidney …, 1997):
pIC50: −log10 of the molar value.

Legend:
[1] = Binding affinity against sigma receptor using radioligand ([3H](+)-pentazocine) binding assay
[2] = as above; remark: listed apart in the source

pIC50 [2]	SMILES	pIC50 [1]
	c1ccc(C(OCCN2CCN(CCOC(c3ccccc3)c3ccccc3)CC2)c2ccccc2)cc1 [1,4-Bis-(2-benzhydryloxy-ethyl)-piperazine]	< 5.00
9.30	c1ccc(CCCN2CCN(CCCc3ccccc3)CC2)cc1 [1,4-Bis-(3-phenyl-propyl)-piperazine]	
	c1ccc(CCCN2CCCN(CCOC(c3ccccc3)c3ccccc3)CC2)cc1 [1-(2-Benzhydryloxy-ethyl)-4-(3-phenyl-propyl)-[1,4]diazepane]	7.59
	c1ccc(CCCN2CCCCN(CCOC(c3ccccc3)c3ccccc3)CC2)cc1 [1-(2-Benzhydryloxy-ethyl)-4-(3-phenyl-propyl)-[1,4]diazocane]	6.74
	c1ccc(C(OCCN2CCNCC2)c2ccccc2)cc1 [1-(2-Benzhydryloxy-ethyl)-piperazine]	5.83
6.96	c1ccc(CCCN2CCNCC2)cc1 [1-(3-Phenyl-propyl)-piperazine]	
	Fc1ccc(C(OCCN2CCNCC2)c2ccc(F)cc2)cc1 [1-{2-[Bis-(4-fluoro-phenyl)-methoxy]-ethyl}-piperazine]	6.02
	c1ccc(CCCN2CCCCC(NCCOC(c3ccccc3)c3ccccc3)C2)cc1 (stereo unspecified) [(2-Benzhydryloxy-ethyl)-[1-(3-phenyl-propyl)-azepan-3-yl]-amine]	7.11
	C[C@@H]1CN(CCOC(c2ccccc2)c2ccccc2)[C@@H](C)CN1CCOC(c1ccccc1)c1ccccc1 [(2S,5R)-1,4-Bis-(2-benzhydryloxy-ethyl)-2,5-dimethyl-piperazine]	5.40
	C[C@@H]1CN(CCOC(c2ccc(F)cc2)c2ccc(F)cc2)[C@@H](C)CN1CCOC(c1ccc(F)cc1)c1ccc(F)cc1 [(2S,5R)-1,4-Bis-{2-[bis-(4-fluoro-phenyl)-methoxy]-ethyl}-2,5-dimethyl-piperazine]	5.44
	C[C@@H]1CN(CCOC(c2ccccc2)c2ccccc2)[C@@H](C)CN1 [(2S,5R)-1-(2-Benzhydryloxy-ethyl)-2,5-dimethyl-piperazine]	7.17
	C[C@@H]1CN(CCOC(c2ccc(F)cc2)c2ccc(F)cc2)[C@@H](C)CN1 [(2S,5R)-1-{2-[Bis-(4-fluoro-phenyl)-methoxy]-ethyl}-2,5-dimethyl-piperazine]	7.19
	C[C@@H]1CN(CCCc2ccccc2)[C@@H](C)CN1CCCc1ccccc1 [(2S,5R)-2,5-Dimethyl-1,4-bis-(3-phenyl-propyl)-piperazine]	8.07
8.07	C[C@@H]1CN(CCCc2ccccc2)[C@@H](C)CN1 [(2S,5R)-2,5-Dimethyl-1-(3-phenyl-propyl)-piperazine]	
	NCCCCNCCOC(c1ccccc1)c1ccccc1 [N*1*-(2-Benzhydryloxy-ethyl)-butane-1,4-diamine]	< 5.00
	c1ccc(CCCNCCCCNCCOC(c2ccccc2)c2ccccc2)cc1 [N-(2-Benzhydryloxy-ethyl)-N'-(3-phenyl-propyl)-butane-1,4-diamine]	5.98
	CN(CCCc1ccccc1)CCN(C)CCOC(c1ccccc1)c1ccccc1 [N-(2-Benzhydryloxy-ethyl)-N,N'-dimethyl-N'-(3-phenyl-propyl)-ethane-1,2-diamine]	7.47
	CNCCN(C)CCOC(c1ccccc1)c1ccccc1 [N-(2-Benzhydryloxy-ethyl)-N,N'-dimethyl-ethane-1,2-diamine]	6.64
	c1ccc(CCCNC2CCCCN(CCOC(c3ccccc3)c3ccccc3)C2)cc1 (stereo unspecified) [[1-(2-Benzhydryloxy-ethyl)-azepan-3-yl]-(3-phenyl-propyl)-amine]	7.08

SMILES	pIC50 [2]	pIC50 [1]
Fc1ccc(C(OCCN2CCN(CCOC(c3ccc(F)cc3)c3ccc(F)cc3)CC2)c2ccc(F)cc2)cc1 [1,4-Bis-{2-[bis-(4-fluoro-phenyl)-methoxy]-ethyl}-piperazine]	< 5.00	
C[C@@H]1CN(CCOC(c2ccccc2)c2ccccc2)[C@@H](C)CN1CCCc1ccccc1 [(2S,5R)-1-(2-Benzhydryloxy-ethyl)-2,5-dimethyl-4-(3-phenyl-propyl)-piperazine]	8.07	
